Tests used:
late watergrass [1] = assay: Test Example 1: herbicidal activity, application before weed generation under submerged conditions (Table 16, symbol A); type: in vivo, late watergrass (Echinochloa oryzicola); conditions: amount of applied herbicide 320 g/ha
Outline: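 Emulsion formulation, water-diluted to set dose, was put onto the flooded surface (4 cm depth, alluvial soil) the same day weeds were sown and 2.5-leaf rice transplanted. After 3 weeks at 25-30 °C under glass, each species was rated 0 (≤5% kill) to 5 (≥90% kill).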

late watergrass [2] = assay: Test Example 2: herbicidal activity, application during weed generation under submerged conditions (Table 17, symbol A); type: in vivo, late watergrass (Echinochloa oryzicola); conditions: AAH 320 g/ha; application during weed generation, submerged conditions
Outline: (§1)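 In this pot test, flooded alluvial soil (water depth 4 cm) holds all three species sown as a mixture. Once seedlings have one to two leaves, the compound's emulsion, thinned with water to the intended dose, is poured on the water; grading follows after three weeks on the earlier criteria.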

oval-leafed pondweed = assay: Test Example 2: herbicidal activity, application during weed generation under submerged conditions (Table 17, symbol C); type: in vivo, oval-leafed pondweed (Monochoria vaginalis); conditions: AAH 320 g/ha; application during weed generation, submerged conditions
Outline: as §1

wild oat = assay: Test Example 4: herbicidal effect by soil treatment (Table 19, symbol I); type: in vivo, wild oat (Avena fatua); conditions: amount of applied herbicide 320 g/ha
Outline: (§2)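 Three weeks of greenhouse growth at 25° C. to 30° C. followed a uniform surface spray of water-diluted emulsion at a predetermined herbicide amount. Seeds had been sown beforehand under about 1.5 cm of sterilized diluvial soil. Grading followed criteria set out in an earlier test.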

blackgrass [3] = assay: Test Example 4: herbicidal effect by soil treatment (Table 19, symbol J); type: in vivo, blackgrass (Alopecurus myosuroides); conditions: amount of applied herbicide 320 g/ha
Outline: as §2

Italian ryegrass [4] = assay: Test Example 4: herbicidal effect by soil treatment (Table 19, symbol K); type: in vivo, Italian ryegrass (Lolium multiflorum); conditions: amount of applied herbicide 320 g/ha
Outline: as §2

lambsquarters = assay: Test Example 4: herbicidal effect by soil treatment (Table 19, symbol O); type: in vivo, lambsquarters (Chenopodium album); conditions: amount of applied herbicide 320 g/ha
Outline: as §2

chickweed [5] = assay: Test Example 4: herbicidal effect by soil treatment (Table 19, symbol P); type: in vivo, common chickweed (Stellaria media); conditions: amount of applied herbicide 320 g/ha
Outline: as §2

false cleavers [6] = assay: Test Example 4: herbicidal effect by soil treatment (Table 19, symbol Q); type: in vivo, false cleavers (Galium spurium); conditions: amount of applied herbicide 320 g/ha
Outline: as §2

persian speedwell = assay: Test Example 4: herbicidal effect by soil treatment (Table 19, symbol R); type: in vivo, Persian speedwell (Veronica persica); conditions: amount of applied herbicide 320 g/ha
Outline: as §2

southern crabgrass = assay: Test Example 5: herbicidal effect by foliage application, plastic box (Table 20, symbol F); type: in vivo, southern crabgrass (Digitaria ciliaris); conditions: foliage application, 320 g/ha, three weeks after application
Outline: (§3)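 Plants sown in sterilized diluvial soil and grown 14 days in a greenhouse at 25° C to 30° C, then sprayed on the foliage with the compound's emulsion diluted in water to a predetermined herbicide amount. Injury to weeds and crops scored three weeks after application on a visual rating scale.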

blackgrass [7] = assay: Test Example 5: herbicidal effect by foliage application, plastic box (Table 20, symbol J); type: in vivo, blackgrass (Alopecurus myosuroides); conditions: foliage application, 320 g/ha, three weeks after application
Outline: as §3

Italian ryegrass [8] = assay: Test Example 5: herbicidal effect by foliage application, plastic box (Table 20, symbol K); type: in vivo, Italian ryegrass (Lolium multiflorum); conditions: foliage application, 320 g/ha, three weeks after application
Outline: as §3

velvetleaf = assay: Test Example 5: herbicidal effect by foliage application, plastic box (Table 20, symbol M); type: in vivo, velvetleaf (Abutilon theophrasti); conditions: foliage application, 320 g/ha, three weeks after application
Outline: as §3

redroot pigweed = assay: Test Example 5: herbicidal effect by foliage application, plastic box (Table 20, symbol N); type: in vivo, redroot pigweed (Amaranthus retroflexus); conditions: foliage application, 320 g/ha, three weeks after application
Outline: as §3

chickweed [9] = assay: Test Example 5: herbicidal effect by foliage application, plastic box (Table 20, symbol P); type: in vivo, common chickweed (Stellaria media); conditions: foliage application, 320 g/ha, three weeks after application
Outline: as §3

false cleavers [10] = assay: Test Example 5: herbicidal effect by foliage application, plastic box (Table 20, symbol Q); type: in vivo, false cleavers (Galium spurium); conditions: foliage application, 320 g/ha, three weeks after application
Outline: as §3

Japanese bulrush = assay: Test Example 2: herbicidal activity, application during weed generation under submerged conditions (Table 17, symbol B); type: in vivo, Japanese bulrush (Schoenoplectus juncoides); conditions: AAH 320 g/ha; application during weed generation, submerged conditions
Outline: as §1

Structure (SMILES) | Herbicidal effect, A: late watergrass (late watergrass [1]) | herbicidal effect rating, A: late watergrass (late watergrass [2]) | herbicidal effect rating, C: oval-leafed pondweed (oval-leafed pondweed) | herbicidal effect, I: wild oat (wild oat) | herbicidal effect, J: blackgrass (blackgrass [3]) | herbicidal effect, K: Italian ryegrass (Italian ryegrass [4]) | F: southern crabgrass, herbicidal effect grade (southern crabgrass) | J: blackgrass, herbicidal effect grade (blackgrass [7]) | K: Italian ryegrass, herbicidal effect grade (Italian ryegrass [8]) | M: velvetleaf, herbicidal effect grade (velvetleaf) | N: redroot pigweed, herbicidal effect grade (redroot pigweed) | P: chickweed, herbicidal effect grade (chickweed [9]) | Q: false cleavers, herbicidal effect grade (false cleavers [10]) | herbicidal effect rating, B: Japanese bulrush (Japanese bulrush) | I: wild oat, herbicidal effect grade (wild oat) | J: blackgrass, herbicidal effect grade (blackgrass [3]) | K: Italian ryegrass, herbicidal effect grade (Italian ryegrass [4]) | O: lambsquarters, herbicidal effect grade (lambsquarters) | P: chickweed, herbicidal effect grade (chickweed [5]) | R: persian speedwell, herbicidal effect grade (persian speedwell) | other results
CCCC(=O)Oc1c(C)nn(C)c(=O)c1-c1c(-c2ccc(F)cc2OC)sc2cc(F)ccc12 [3-010] | 5 (Herbicidal rate of 90% or more (almost completely withered)) | 3 (Herbicidal rate of 40% or more and less than 70%) | 4 (Herbicidal rate of 70% or more and less than 90%) | 4 (Herbicidal rate of 70% or more and less than 90%) | 4 (Herbicidal rate of 70% or more and less than 90%) | 4 (Herbicidal rate of 70% or more and less than 90%) | 3 (Herbicidal rate of 40% or more and less than 70%) | 5 (Herbicidal rate of 90% or more (almost completely withered)) | 4 (Herbicidal rate of 70% or more and less than 90%) | 5 (Herbicidal rate of 90% or more (almost completely withered)) | 5 (Herbicidal rate of 90% or more (almost completely withered)) | 5 (Herbicidal rate of 90% or more (almost completely withered)) | 5 (Herbicidal rate of 90% or more (almost completely withered)) |  |  |  |  |  |  |  | herbicidal effect, O: lambsquarters (lambsquarters): 5 (Herbicidal rate of 90% or more (almost completely withered)); herbicidal effect, P: chickweed (chickweed [5]): 4 (Herbicidal rate of 70% or more and less than 90%); herbicidal effect, Q: false cleavers (false cleavers [6]): 5 (Herbicidal rate of 90% or more (almost completely withered)); herbicidal effect, R: persian speedwell (persian speedwell): 5 (Herbicidal rate of 90% or more (almost completely withered))
CCCC(=O)Oc1c(C)nn(C)c(=O)c1-c1c(-c2ccc(OC(C)C)cc2)sc2cc(F)ccc12 [3-020] | 3 (Herbicidal rate of 40% or more and less than 70%) | 1 (Herbicidal rate of 5% or more and less than 20%) | 2 (Herbicidal rate of 20% or more and less than 40%) | 0 (Herbicidal rate of 5% or less (almost no effect)) | 0 (Herbicidal rate of 5% or less (almost no effect)) | 0 (Herbicidal rate of 5% or less (almost no effect)) | 0 (Herbicidal rate of 5% or less (almost no effect)) | 2 (Herbicidal rate of 20% or more and less than 40%) | 2 (Herbicidal rate of 20% or more and less than 40%) | 3 (Herbicidal rate of 40% or more and less than 70%) | 4 (Herbicidal rate of 70% or more and less than 90%) | 5 (Herbicidal rate of 90% or more (almost completely withered)) | 4 (Herbicidal rate of 70% or more and less than 90%) | 0 (Herbicidal rate of 5% or less (almost no effect)) |  |  |  |  |  |  | herbicidal effect, O: lambsquarters (lambsquarters): 0 (Herbicidal rate of 5% or less (almost no effect)); herbicidal effect, P: chickweed (chickweed [5]): 0 (Herbicidal rate of 5% or less (almost no effect))
COc1ccccc1-c1sc2cc(OC3CCCC3)ccc2c1-c1c(O)c(C)nn(C)c1=O [3-109] | 5 (Herbicidal rate of 90% or more (almost completely withered)) | 0 (Herbicidal rate of 5% or less (almost no effect)) | 2 (Herbicidal rate of 20% or more and less than 40%) |  |  |  | 3 (Herbicidal rate of 40% or more and less than 70%) | 2 (Herbicidal rate of 20% or more and less than 40%) | 4 (Herbicidal rate of 70% or more and less than 90%) | 4 (Herbicidal rate of 70% or more and less than 90%) | 5 (Herbicidal rate of 90% or more (almost completely withered)) | 5 (Herbicidal rate of 90% or more (almost completely withered)) | 1 (Herbicidal rate of 5% or more and less than 20%) | 3 (Herbicidal rate of 40% or more and less than 70%) | 5 (Herbicidal rate of 90% or more (almost completely withered)) | 0 (Herbicidal rate of 5% or less (almost no effect)) | 4 (Herbicidal rate of 70% or more and less than 90%) | 5 (Herbicidal rate of 90% or more (almost completely withered)) | 1 (Herbicidal rate of 5% or more and less than 20%) | 4 (Herbicidal rate of 70% or more and less than 90%) | 
Cc1ccc2oc(-c3ccc4c(c3)OCCO4)c(-c3c(O)c(C)nn(C)c3=O)c2c1 [9-012] | 4 (Herbicidal rate of 70% or more and less than 90%) | 1 (Herbicidal rate of 5% or more and less than 20%) | 5 (Herbicidal rate of 90% or more (almost completely withered)) |  |  |  |  |  |  |  |  |  |  | 4 (Herbicidal rate of 70% or more and less than 90%) | 0 (Herbicidal rate of 5% or less (almost no effect)) | 0 (Herbicidal rate of 5% or less (almost no effect)) | 4 (Herbicidal rate of 70% or more and less than 90%) | 3 (Herbicidal rate of 40% or more and less than 70%) | 3 (Herbicidal rate of 40% or more and less than 70%) | 4 (Herbicidal rate of 70% or more and less than 90%) | herbicidal effect on southern crabgrass (F) (southern crabgrass): 3 (Herbicidal rate of 40% or more and less than 70%); herbicidal effect on blackgrass (J) (blackgrass [7]): 0 (Herbicidal rate of 5% or less (almost no effect)); herbicidal effect on Italian ryegrass (K) (Italian ryegrass [8]): 5 (Herbicidal rate of 90% or more (almost completely withered)); herbicidal effect on velvetleaf (M) (velvetleaf): 5 (Herbicidal rate of 90% or more (almost completely withered)); herbicidal effect on false cleavers (Q) (false cleavers [10]): 3 (Herbicidal rate of 40% or more and less than 70%)
CCCC(=O)Oc1c(C)nn(C)c(=O)c1-c1c(-c2ccc3c(c2)OCCO3)oc2ccc(C)cc12 [9-013] | 3 (Herbicidal rate of 40% or more and less than 70%) | 0 (Herbicidal rate of 5% or less (almost no effect)) | 5 (Herbicidal rate of 90% or more (almost completely withered)) |  |  |  |  |  |  |  |  |  |  | 0 (Herbicidal rate of 5% or less (almost no effect)) | 0 (Herbicidal rate of 5% or less (almost no effect)) | 0 (Herbicidal rate of 5% or less (almost no effect)) | 0 (Herbicidal rate of 5% or less (almost no effect)) | 0 (Herbicidal rate of 5% or less (almost no effect)) | 0 (Herbicidal rate of 5% or less (almost no effect)) | 0 (Herbicidal rate of 5% or less (almost no effect)) | herbicidal effect on southern crabgrass (F) (southern crabgrass): 0 (Herbicidal rate of 5% or less (almost no effect)); herbicidal effect on blackgrass (J) (blackgrass [7]): 0 (Herbicidal rate of 5% or less (almost no effect)); herbicidal effect on Italian ryegrass (K) (Italian ryegrass [8]): 2 (Herbicidal rate of 20% or more and less than 40%); herbicidal effect on velvetleaf (M) (velvetleaf): 5 (Herbicidal rate of 90% or more (almost completely withered)); herbicidal effect on false cleavers (Q) (false cleavers [10]): 0 (Herbicidal rate of 5% or less (almost no effect))

Source: patent publication US20230085307A1, “PYRIDAZINONE COMPOUND AND HERBICIDE” (NISSAN CHEMICAL CORPORATION, priority 2019, published 2023)
